1 compound from PMC8667898, “Topo II inhibition and DNA intercalation by new phthalazine-based derivatives as potent anticancer agents: design, synthesis, anti-proliferative, docking, and in vivo studies” (Journal of Enzyme Inhibition and Medicinal Chemistry, 2021) can be followed below.

The term IC50 denotes the point on the concentration scale where inhibition reaches its midpoint.

Data set [1] can be described thus: Hematological and biochemical blood assays in SEC-bearing mice. The data set is classed as in vivo, Swiss albino mice. Conditions: 5 mg/kg BW, Mean ± SEM (n = 7). The protocol:
At the end of the experiment, animals from different groups were sacrificed, and blood samples were collected for hematological parameters, including Hb, RBC’s, and WBC’s levels, and serum for determination of liver enzymes ALT, AST levels, and proteins.
(§1) The experimental animals were randomly divided into four groups. Group 1 served as the normal saline control (5 ml/kg B.Wt., I.P.). Group 2 served as the SEC control (1 × 10^6 cells/mouse). Group 3 served as the compound-treated group (5 mg/kg B.Wt., I.P.). […] Bodyweight and survival were recorded daily until the 24th day in both treated and control groups. At the end of the experiment, the blood of each group was collected under light anaesthesia to the estimate of hematological and biochemical assays. The anaesthetised animals were then sacrificed for evaluation of the antitumor activity and histopathological examination.
At the end of the experiment, animals from different groups were sacrificed, and blood samples were collected for hematological parameters including, Hb, RBC’s, and WBC’s levels, and serum for determination of liver enzymes ALT, AST levels, and proteins. Complete blood count (CBC) was investigated using the Abbott CELL-DYN®1800 automated haematology analyser (USA) using ready-made kits (Abbott Laboratories, Abbott Park, IL, USA). Activities of aspartate aminotransferase (AST) and alanine aminotransferase (ALT) were evaluated using commercial kits (ELITech clinical systems, France). Serum albumin level was determined by kit purchased from STANBIO Company (USA). Protein content was determined by colorimetric method using ready-made kits produced by Instrumentation Laboratory SpA, Inova diagnostics, Milano, Italy.

Data set [2] concerns Solid Ehrlich Carcinoma (SEC). Kind of data set: In vivo antitumor activity against Solid Ehrlich Carcinoma. On the set-up: species or system Swiss albino mice. Conditions: SEC-bearing mice, 5 mg/kg BW I.P. The procedure: To examine the in vivo anticancer activity of compound 9d, adult female Swiss albino mice (30 mice) inoculated with I.P. injection of Solid Ehrlich Carcinoma (SEC) tumour cell lines in a volume of 0.2 ml physiological saline contains 1 × 10^6 viable cells for 24 h.
These mice were randomly divided into four groups (7 mice/group). […] Bodyweight and survival were recorded daily until the 24th day in both treated and control groups. At the end of the experiment, the blood of each group was collected under light anaesthesia for the estimation of hematological and biochemical assays. The anaesthetised animals were then sacrificed to evaluate of the antitumor activity and to conduct hematological, biochemical, and histopathological assays, Figure 3.
Adult female Swiss albino mice purchased from Theodor Bilharzia Research Institute, Giza, Egypt, with an average bodyweight of (18–23) g were used. Mice were housed under constant conditions of 12 h light/dark cycle in a […], with free access to standard laboratory mice food and water. All procedures related to care and maintenance of the animals were performed according to the international guiding principles for animal research and approved by the Faculty of Science, Suez Canal University bioethics and animal ethics committee (Approval number REC-07–2021).
Solid Ehrlich carcinoma (SEC) was purchased from the National Cancer Institute (Cairo University, Egypt). The tumour cell line was proliferated in mice through serial intraperitoneal (I.P.) transplantation of a volume of 0.2 ml physiological saline contains 1 × 10^6 viable cells for 24 h. SEC cells were collected 7 days after I.P. implantation. The harvested cells were diluted with saline to obtain a concentration of 5 × 10^6 viable SEC cells/mL. A volume of 0.2 ml saline contains 1 × 10^6 SEC cells that were I.P. implanted into each normal mouse. SEC cells (1 × 10^6 tumour cells/mouse) were implanted subcutaneously into the right thigh of the hind limb.
as §1
It includes tumour volume, weight, and tumour inhibition ratio (TIR%). Time interval measurements of tumour volume using digital Vernier calliper (Tricle Brand, Shanghai, China). Measure tumour length and width using a clipper and then calculate tumour volume using formulations V = (L × W × W)/2, where V is tumour volume, W is tumour width, L is tumour length. While TIR% was calculated according to the following equation Tumor volume (Control)−Tumor volume (treated)/Tumor volume (control)× 100.

Data set [3] relates to HCT-116 cells (colorectal carcinoma). Nature of the data set: MTT anti-proliferative assay, HCT-116. The class given is cell-based, human. The note with it: Homo sapiens, HCT-116, MTT, mean ± SD of three separate experiments; read-out: In vitro Cytotoxicity IC50 HCT-116. The procedure: Anti-proliferative activities of the target compounds were assessed via the standard MTT method[38–40] against three cancer cell lines, namely, hepatocellular carcinoma (HepG-2), colorectal carcinoma (HCT-116), and human breast adenocarcinoma (MCF-7). Doxorubicin was used in this test as a positive control.
Anti-proliferative activity of the synthesised compounds was estimated using the MTT assay protocol[8]^,[38–40] as shown in Supplementary data.
4.2.1. In vitro anti-proliferative activity against MCF-7, HepG-2 and HCT-116 The cells were cultured in RPMI-1640 medium supplemented with 10% fetal bovine serum (FBS), penicillin (100 unit /mL) and streptomycin sulphate (100µg/mL) at 37 °C in a 5% CO2 incubator.
Then, cells were dropped in 96-well plates at a density of 3-8 × 10^3 cells/well and incubated for two days in a 5% CO2 incubator at 37 °C. Then, the cells were treated with the synthesized compounds and the cell cultures were continued incubated for 24 h. However, Different concentrations of the compound under test (0.0, 5.0, 12.5, 25.0 and 50 mg/ml) were added to the cell monolayer. Then, (3-[4,5-dimethylthiazol-2-yl]- 2,5-diphenyltetrazolium bromide) MTT solution (20 µl, 5mg/mL) was added to each well and incubated for additional 4 h. The formed purple crystals of MTT-formazan were dissolved in 100 µl DMSO each well; the absorbance of each well was measured at 570 nm using a plate reader (EXL 800, USA). All of the compounds were tested three times. The relative cell viability in percentage was calculated. The results for IC50 values of the active compounds are […]
(§2) The data represented the mean of three independent experiments in triplicate and were expressed as means ± SD. […]
of the cells could survive. […]

The next data set relates to Calf thymus DNA. Nature of the data set: DNA intercalation assay (DNA/methyl green colorimetric assay). The data set is classed as binding. The note with it: three independent experiments. The protocol:
as §2
4.2.2. DNA intercalation assay (DNA/methyl green colorimetric assay)
Affinity of some compounds for DNA-binding was examined in vitro using DNA/methyl green assay using doxorubicin as a positive control. In this test, a mixture of methyl green (20 mg) and Calf thymus DNA (10 mg) (Sigma– Aldrich) were suspended in 0.05 M TrisHCl buffer (100 mL, pH 7.5) containing 7.5 mM MgSO4. This mixture was stirred continuously for 24 h at 37 °C. Then, ethanolic solution of the test compounds was pitted into the wells of a 96-well microtiter tray at a concentration of 10, 100 and 1000 µM. The excess solvent was removed from each well under vacuum, with subsequent addition of 200 µL of the DNA/methyl green solution. The test samples were incubated for 24 h in dark at ambient temperature. After that, absorbance of each sample was determined at 642.5–645 nm. In this test, the methyl green dye reversibly binds to DNA to form persistent colored complex of DNA/methyl green. This color still stables at neutral pH. When the DNA intercalators were added, the methyl green was displaced from DNA with addition of H2O molecule to the dye resulting in formation of the colorless carbinol leading to a decrease in spectrophotometric absorbance. ΔA value (the difference between DNA/methyl green complex and free cabinol) provides the simplest means for detecting the DNA-binding affinity and relative binding strength. IC50′s were determined by linear regression of data plotted on a semi -log scale and the data were compared with doxorubicin as standard DNA intercalator . […]

Data set [4] is described as follows: Histopathological examination of liver tissues of SEC-bearing mice. Conditions: H&E stain, ×200. The class given is in vivo, Swiss albino mice. The protocol: as §1
Specimens of liver-sacrificed mice were fixed in 10% saline formalin. The fixed liver specimens were dehydrated in ascending series of ethyl alcohol and embedded in paraffin. Sections at […] thicknesses were stained with haematoxylin and eosin and examined under the light microscope.

Take `COc1cccc2c1C(=O)c1c(O)c3c(c(O)c1C2=O)C[C@@](O)(C(=O)CO)C[C@@H]3O[C@H]1C[C@H](N)[C@H](O)[C@H](C)O1` [Doxorubicin, reference compound]: in data set [1], the Hb came out at 7.82 ± 0.27 g/dL, the RBCs count is 5.26 ± 0.38 ×10^6/µL, the “Total Protein” value was 6.73 ± 0.26 g/dL and the WBCs count is recorded as 4.11 ± 0.57 ×10^3/µL. In data set [2], this compound showed a tumour volume of 22 mm^3. Also, in data set [2] (compared to SEC control), the “reduction of the increase in solid tumour mass” value came out at 59.8%. The solid tumour mass in data set [2] (SEC control 194 mg) is listed as 78 mg. Besides, the IC50 in data set [3] was determined as 9.62 ± 0.5 µM. In the data set on Calf thymus DNA, this compound yielded an IC50 of 31.3 ± 1.8 µM. Further, the “Histopathological finding in liver tissue” value in data set [4] is “tissue enhancement like normal group, but still, some hydropic degeneration, pyknosis (arrows) and karyolysis (arrowhead) were shown”.
